Results from patent US9655981B2, “Mixed micelles” (Omeros Corporation, priority 2011, dated 2017).

Columns and labels:
[1] = Stability of ICG in micelles in vitro (decay of fluorescence emission in water); format: physicochemical; conditions: within forty-eight hours, deionized water, dark
From the text: ICG has advantageous fluorescence properties for near-infrared imaging (NIR) in vivo but limitations include the molecule's photo, aqueous, and thermal instability as well as rapid binding to blood proteins and subsequent clearance by the liver. See, e.g., Cherrick, J. Clin. Invest. 39:592-600 (1959) and Kirchherr, et al., Mol. Pharmaceut. 6:480-491 (2009). Aqueous degradation of ICG occurs as a result of double bond saturation in the molecule's conjugated chain, and sequestering the molecule from the solvent radicals that activate this process reduces the rate of its degradation. See, e.g., Kirchherr et al., and Altinoglu and Adair, Wiley Interdisciplinary Reviews—Nanomedicine and Nanobiotechnology, 2:[…] (2010). To test the ability of the mixed micelle systems to stabilize ICG, the fluorescence of encapsulated dye was monitored over time at both room temperature and 37° C.
Stability of ICG in mixed micelles was evaluated by measuring decay of fluorescence emission in solution over a period of approximately ten days. […] At predetermined intervals, each mixture was sampled and the fluorescence intensity of the sample was evaluated with excitation at 775 nm and emission from 786 to 850 nm.

MDA-MB-435-MDR cells = test: Cytotoxicity, MTS assay; conditions: 4 hours treatment, viability after 24 hours, 16 μg/mL DOX
Description: The cell lines which were used were the MDA-MB-435 (Parent) and MDA-MB-435-MDR (MDR) cell lines.
Cytotoxicity was measured by treating MDA-MB-435 (Parent) and MDA-MB-435-MDR cells for 4 hours with free doxorubicin and encapsulated doxorubicin using various formulations of mixed micelles. After 4 hours the doxorubicin was rinsed from the cells. After 24 hours the cell viability was measured using an MTS assay. MDA-MB-435 cells were treated with 4 μg/mL DOX, and […] cells were treated with 16 μg/mL DOX.

SMILES	ICG fluorescence, % of original fluorescence value ([1]; 37° C.)	ICG fluorescence, % of original fluorescence value ([1]; room temperature)	cytotoxicity (cell viability, in words) (MDA-MB-435-MDR cells)
CC1(C)C(/C=C/C=C/C=C/C=C2\N(CCCCS(=O)(=O)O)c3ccc4ccccc4c3C2(C)C)=[N+](CCCCS(=O)(=O)[O-])c2ccc3ccccc3c21 [free ICG, indocyanine green]	less than 10%	less than 10%	
COc1cccc2c1C(=O)c1c(O)c3c(c(O)c1C2=O)C[C@@](O)(C(=O)CO)C[C@@H]3O[C@H]1C[C@H](N)[C@H](O)[C@H](C)O1 [Unencapsulated DOX, Doxorubicin]			limited effect
